According to ChEMBL document CHEMBL1177834, “ADMET rules of thumb II: A comparison of the effects of common substituents on a range of ADMET parameters” (Bioorg Med Chem, 2009):

biological target: Cytochrome P450 2C9 (Homo sapiens, UniProt P11712); assay: Inhibition of CYP2C9; format: ADME
Sequence (P11712 whole entry): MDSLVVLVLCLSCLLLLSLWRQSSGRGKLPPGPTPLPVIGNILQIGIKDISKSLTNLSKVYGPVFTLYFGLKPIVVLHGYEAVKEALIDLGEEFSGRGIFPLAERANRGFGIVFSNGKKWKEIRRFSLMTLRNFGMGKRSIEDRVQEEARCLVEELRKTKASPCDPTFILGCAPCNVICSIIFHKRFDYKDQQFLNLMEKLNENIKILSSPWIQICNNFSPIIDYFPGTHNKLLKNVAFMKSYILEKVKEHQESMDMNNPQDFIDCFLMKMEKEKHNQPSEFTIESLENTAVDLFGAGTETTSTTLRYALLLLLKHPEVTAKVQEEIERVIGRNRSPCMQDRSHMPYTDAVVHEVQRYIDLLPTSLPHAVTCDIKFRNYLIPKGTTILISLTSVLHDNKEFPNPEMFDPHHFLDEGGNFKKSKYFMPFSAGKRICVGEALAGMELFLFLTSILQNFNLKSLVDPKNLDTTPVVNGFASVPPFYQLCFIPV

Row | IC50 | Structure (SMILES)
1 | 7.94 µM | Cc1c(-c2ccccc2)nc2ccccc2c1C(=O)N[C@@H](c1cccc(F)c1)C1CC1
2 | 20 µM | O=C(Cn1c(CCc2cccc(F)c2F)nc(=O)c2cccnc21)N(Cc1ccc(-c2ccc(C(F)(F)F)cc2)cc1)C1CCNCC1
3 | 0.1 µM | O=C(Cn1c(CCc2cccc(F)c2F)nc(=O)c2cccnc21)N(Cc1ccc(-c2ccc(C(F)(F)F)cc2)cc1)C1CCN(c2ccncn2)CC1
4 | 15.8 µM | O=C(Cn1c(CCc2cccc(F)c2F)nc(=O)c2ccccc21)N(Cc1ccc(-c2ccc(C(F)(F)F)cc2)cc1)C1CCNCC1
5 | 0.0794 µM | O=C(Cn1c(CCc2cccc(F)c2F)nc(=O)c2ccccc21)N(Cc1ccc(-c2ccc(C(F)(F)F)cc2)cc1)C1CCN(c2ccncn2)CC1
6 | 10 µM | O=C(N[C@@H](c1cccc(F)c1)C1CC1)c1c(Cc2cncnc2)c(-c2ccccc2)nc2ccccc12
7 | 20 µM | Cc1ccc2c(N3CCN(CCc4cccc(-c5cncnc5)c4)CC3)cccc2n1
8 | 10 µM | Cc1ccc2c(N3CCN(CCc4ccc(F)c(-c5cncnc5)c4)CC3)cccc2n1
9 | 20 µM | Cc1c(-c2cccs2)nc2ccccc2c1C(=O)N[C@@H](C)C1CCCCC1
10 | 31.6 µM | C[C@H](NC(=O)c1c(Cc2cncnc2)c(-c2cccs2)nc2ccccc12)C1CCCCC1

Row | Structure (SMILES) | IC50
11 | Cc1ccc2c(N3CCN(CCc4ccc(F)cc4)CC3)cccc2n1 | 31.6 µM
12 | Cc1ccc2c(N3CCN(CCc4ccccc4)CC3)cccc2n1 | 39.8 µM
